Assay results published in ChEMBL document CHEMBL5579822, “Targeting cyclin-dependent kinases: From pocket specificity to drug selectivity” (Eur J Med Chem, 2024).

Assays:
[1] = molecular target: CDK12/Cyclin K (Homo sapiens, UniProt Q9NYV4)
[2] = molecular target: Cyclin-dependent kinase 13 (Homo sapiens, UniProt Q14004)
[3] = molecular target: Cyclin-dependent kinase 13/Cyclin-K (Homo sapiens, UniProt Q14004)
[4] = molecular target: T1, Cyclin-dependent kinase 7 (Homo sapiens, UniProt P50613); test: biochemical
T1 sequence (P50613 whole entry): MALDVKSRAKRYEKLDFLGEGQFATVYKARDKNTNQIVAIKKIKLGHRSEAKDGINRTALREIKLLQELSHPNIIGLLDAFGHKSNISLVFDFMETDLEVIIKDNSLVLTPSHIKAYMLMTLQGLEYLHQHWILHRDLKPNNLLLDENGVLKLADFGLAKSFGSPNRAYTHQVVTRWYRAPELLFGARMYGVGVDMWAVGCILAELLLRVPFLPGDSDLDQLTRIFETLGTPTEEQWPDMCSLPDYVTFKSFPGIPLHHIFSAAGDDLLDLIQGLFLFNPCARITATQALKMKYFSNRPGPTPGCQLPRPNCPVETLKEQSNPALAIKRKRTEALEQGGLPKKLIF

[5] = molecular target: T1, Cyclin-dependent kinase 7
[6] = molecular target: T2, Cyclin-dependent kinase 6 (Homo sapiens, UniProt Q00534)
T2 sequence (Q00534 whole entry): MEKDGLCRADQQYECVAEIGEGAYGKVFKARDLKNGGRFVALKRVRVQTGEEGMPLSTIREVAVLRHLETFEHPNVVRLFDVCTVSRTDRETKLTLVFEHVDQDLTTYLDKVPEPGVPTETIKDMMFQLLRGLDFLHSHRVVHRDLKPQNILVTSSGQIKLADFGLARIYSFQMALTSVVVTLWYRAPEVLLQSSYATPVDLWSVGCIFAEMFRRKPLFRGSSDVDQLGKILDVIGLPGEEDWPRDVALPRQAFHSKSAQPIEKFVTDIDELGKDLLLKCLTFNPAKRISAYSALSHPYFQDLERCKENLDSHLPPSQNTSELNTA

[7] = molecular target: T3, Cyclin-dependent kinase 4 (Homo sapiens, UniProt P11802)
T3 sequence (P11802 whole entry): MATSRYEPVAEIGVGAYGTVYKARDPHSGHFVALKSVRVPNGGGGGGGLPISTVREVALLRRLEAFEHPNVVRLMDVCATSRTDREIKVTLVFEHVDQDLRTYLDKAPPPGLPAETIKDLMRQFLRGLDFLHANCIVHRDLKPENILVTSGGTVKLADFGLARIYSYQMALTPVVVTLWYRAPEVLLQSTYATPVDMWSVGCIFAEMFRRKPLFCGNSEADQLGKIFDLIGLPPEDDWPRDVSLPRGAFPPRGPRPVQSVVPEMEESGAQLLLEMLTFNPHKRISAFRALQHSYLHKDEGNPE

[8] = molecular target: Cyclin-dependent kinase 1 (Homo sapiens, UniProt P06493)
[9] = molecular target: T4, Cyclin-dependent kinase 2 (Homo sapiens, UniProt P24941)
[10] = molecular target: T5, Cyclin-dependent kinase 9 (Homo sapiens, UniProt P50750)
T5 sequence (P50750 whole entry): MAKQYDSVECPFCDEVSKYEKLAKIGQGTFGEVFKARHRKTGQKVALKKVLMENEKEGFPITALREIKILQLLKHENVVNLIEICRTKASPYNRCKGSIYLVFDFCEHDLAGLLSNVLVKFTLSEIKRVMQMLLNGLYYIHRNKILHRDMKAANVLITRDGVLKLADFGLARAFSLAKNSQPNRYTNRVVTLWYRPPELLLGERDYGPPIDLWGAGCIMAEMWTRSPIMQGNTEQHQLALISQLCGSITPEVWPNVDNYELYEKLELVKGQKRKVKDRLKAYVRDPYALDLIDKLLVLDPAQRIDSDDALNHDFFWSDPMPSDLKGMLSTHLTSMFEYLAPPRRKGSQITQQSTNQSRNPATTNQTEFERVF

[11] = molecular target: T3, Cyclin-dependent kinase 4; test: Binding affinity to CDK4 (unknown origin) assessed as inhibition constant
[12] = molecular target: T5, Cyclin-dependent kinase 9; test: Binding affinity to CDK9 (unknown origin) assessed as inhibition constant
[13] = molecular target: T4, Cyclin-dependent kinase 2; test: Binding affinity to CDK2 (unknown origin) extracted from insect cells assessed as inhibition constant; type: cell-free, Insect cell
[14] = molecular target: T2, Cyclin-dependent kinase 6; test: Binding affinity to CDK6 (unknown origin) assessed as inhibition constant
[15] = molecular target: T5, Cyclin-dependent kinase 9; remark: listed apart in the source
[16] = molecular target: T4, Cyclin-dependent kinase 2; remark: listed apart in the source
[17] = molecular target: T3, Cyclin-dependent kinase 4; remark: listed apart in the source
[18] = molecular target: Cyclin-dependent kinase 5 (Homo sapiens, UniProt Q00535)
[19] = molecular target: T2, Cyclin-dependent kinase 6; remark: listed apart in the source

CDK12/Cyclin K, sequence (O75909 whole entry): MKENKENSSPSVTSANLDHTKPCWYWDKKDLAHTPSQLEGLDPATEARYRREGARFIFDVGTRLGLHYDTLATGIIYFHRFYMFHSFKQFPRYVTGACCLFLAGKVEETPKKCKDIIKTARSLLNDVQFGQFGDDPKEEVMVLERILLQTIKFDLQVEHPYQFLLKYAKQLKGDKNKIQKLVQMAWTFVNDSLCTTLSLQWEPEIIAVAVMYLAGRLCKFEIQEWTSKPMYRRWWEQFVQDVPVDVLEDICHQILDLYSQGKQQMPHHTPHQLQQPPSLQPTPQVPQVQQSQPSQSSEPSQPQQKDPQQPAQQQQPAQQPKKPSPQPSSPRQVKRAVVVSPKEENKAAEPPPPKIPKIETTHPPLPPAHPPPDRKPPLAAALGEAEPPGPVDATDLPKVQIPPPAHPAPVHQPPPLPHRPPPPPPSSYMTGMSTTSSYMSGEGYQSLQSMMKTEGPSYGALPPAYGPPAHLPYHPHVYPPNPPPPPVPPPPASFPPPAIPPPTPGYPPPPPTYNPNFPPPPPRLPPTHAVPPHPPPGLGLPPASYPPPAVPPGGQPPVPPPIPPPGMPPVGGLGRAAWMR
CDK12/Cyclin K, sequence (Q9NYV4 whole entry): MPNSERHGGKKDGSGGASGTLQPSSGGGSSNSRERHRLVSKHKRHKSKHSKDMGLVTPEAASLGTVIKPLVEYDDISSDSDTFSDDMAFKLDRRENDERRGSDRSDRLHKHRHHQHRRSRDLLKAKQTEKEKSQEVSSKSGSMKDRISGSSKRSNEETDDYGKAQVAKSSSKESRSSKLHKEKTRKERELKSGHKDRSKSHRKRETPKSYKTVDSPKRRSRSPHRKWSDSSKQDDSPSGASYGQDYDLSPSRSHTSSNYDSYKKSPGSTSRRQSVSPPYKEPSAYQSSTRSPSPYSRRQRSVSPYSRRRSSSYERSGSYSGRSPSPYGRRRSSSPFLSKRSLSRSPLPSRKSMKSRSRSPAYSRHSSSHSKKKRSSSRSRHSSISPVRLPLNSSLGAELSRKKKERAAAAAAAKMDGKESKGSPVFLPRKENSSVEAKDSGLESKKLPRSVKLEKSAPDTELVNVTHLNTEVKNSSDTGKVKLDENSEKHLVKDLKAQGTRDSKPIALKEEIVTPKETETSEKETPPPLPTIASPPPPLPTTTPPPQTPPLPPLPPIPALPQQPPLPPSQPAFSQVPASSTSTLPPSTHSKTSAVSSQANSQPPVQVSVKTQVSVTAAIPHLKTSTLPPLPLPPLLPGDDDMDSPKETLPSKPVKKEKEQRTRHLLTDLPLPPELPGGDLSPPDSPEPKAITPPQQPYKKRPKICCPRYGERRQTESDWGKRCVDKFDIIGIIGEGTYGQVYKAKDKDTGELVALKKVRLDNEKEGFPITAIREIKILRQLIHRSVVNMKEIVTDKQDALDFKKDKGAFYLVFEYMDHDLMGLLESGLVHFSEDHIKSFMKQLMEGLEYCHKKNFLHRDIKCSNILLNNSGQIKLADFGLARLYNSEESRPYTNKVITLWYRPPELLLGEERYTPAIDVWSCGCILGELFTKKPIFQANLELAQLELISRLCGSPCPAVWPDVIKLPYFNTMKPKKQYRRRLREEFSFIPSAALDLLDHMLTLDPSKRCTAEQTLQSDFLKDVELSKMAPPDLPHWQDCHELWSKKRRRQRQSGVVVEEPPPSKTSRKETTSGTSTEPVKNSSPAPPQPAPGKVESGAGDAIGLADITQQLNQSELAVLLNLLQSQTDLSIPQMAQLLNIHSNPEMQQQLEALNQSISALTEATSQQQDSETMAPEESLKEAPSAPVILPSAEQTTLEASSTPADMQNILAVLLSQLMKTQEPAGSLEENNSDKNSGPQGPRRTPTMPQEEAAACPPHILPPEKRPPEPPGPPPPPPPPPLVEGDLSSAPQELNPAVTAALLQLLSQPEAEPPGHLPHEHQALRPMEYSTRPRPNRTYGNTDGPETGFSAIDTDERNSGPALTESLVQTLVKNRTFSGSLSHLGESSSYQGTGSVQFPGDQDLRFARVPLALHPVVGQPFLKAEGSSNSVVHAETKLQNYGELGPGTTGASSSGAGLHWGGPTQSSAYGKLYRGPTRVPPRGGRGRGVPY
Cyclin-dependent kinase 13/Cyclin-K, sequence (Q14004 whole entry): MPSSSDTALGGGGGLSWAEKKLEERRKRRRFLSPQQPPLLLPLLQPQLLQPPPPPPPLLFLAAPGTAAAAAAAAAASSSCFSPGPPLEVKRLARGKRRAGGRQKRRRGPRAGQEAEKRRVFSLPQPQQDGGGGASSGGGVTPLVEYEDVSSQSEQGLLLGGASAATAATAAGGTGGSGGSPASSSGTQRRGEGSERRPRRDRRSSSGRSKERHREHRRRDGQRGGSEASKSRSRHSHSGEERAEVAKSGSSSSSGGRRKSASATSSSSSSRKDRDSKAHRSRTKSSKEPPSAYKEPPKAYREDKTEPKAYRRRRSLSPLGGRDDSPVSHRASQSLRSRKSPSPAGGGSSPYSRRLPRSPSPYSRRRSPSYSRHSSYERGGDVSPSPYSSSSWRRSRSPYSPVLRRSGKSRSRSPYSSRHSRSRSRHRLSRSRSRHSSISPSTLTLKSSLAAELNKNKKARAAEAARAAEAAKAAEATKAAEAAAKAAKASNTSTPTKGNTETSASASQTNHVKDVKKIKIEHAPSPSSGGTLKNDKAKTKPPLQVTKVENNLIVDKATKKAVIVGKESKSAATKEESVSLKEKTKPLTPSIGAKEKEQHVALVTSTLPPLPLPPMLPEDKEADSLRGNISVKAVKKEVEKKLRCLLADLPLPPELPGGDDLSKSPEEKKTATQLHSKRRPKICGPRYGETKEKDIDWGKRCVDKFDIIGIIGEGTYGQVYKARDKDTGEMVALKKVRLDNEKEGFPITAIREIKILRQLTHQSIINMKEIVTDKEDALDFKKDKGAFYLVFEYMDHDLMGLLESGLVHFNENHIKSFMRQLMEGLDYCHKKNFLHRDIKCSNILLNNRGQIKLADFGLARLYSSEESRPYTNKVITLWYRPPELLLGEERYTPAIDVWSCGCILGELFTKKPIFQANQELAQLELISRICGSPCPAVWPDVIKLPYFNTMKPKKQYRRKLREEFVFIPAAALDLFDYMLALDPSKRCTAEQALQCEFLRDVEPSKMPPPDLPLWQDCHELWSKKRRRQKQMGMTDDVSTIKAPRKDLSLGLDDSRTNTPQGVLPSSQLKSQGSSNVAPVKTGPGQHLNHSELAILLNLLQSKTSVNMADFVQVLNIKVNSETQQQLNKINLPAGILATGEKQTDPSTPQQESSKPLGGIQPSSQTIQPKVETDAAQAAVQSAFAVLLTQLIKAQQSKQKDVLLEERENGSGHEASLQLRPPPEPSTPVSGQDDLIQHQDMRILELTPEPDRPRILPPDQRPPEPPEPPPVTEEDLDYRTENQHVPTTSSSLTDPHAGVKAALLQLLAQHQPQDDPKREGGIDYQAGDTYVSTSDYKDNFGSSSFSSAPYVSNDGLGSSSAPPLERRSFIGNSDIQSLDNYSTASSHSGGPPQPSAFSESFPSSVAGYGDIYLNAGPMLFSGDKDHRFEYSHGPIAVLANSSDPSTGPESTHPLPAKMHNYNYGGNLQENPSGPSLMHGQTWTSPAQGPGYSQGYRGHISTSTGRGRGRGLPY
Cyclin-dependent kinase 13/Cyclin-K, sequence (O75909 whole entry, further chain): as the sequence (O75909 whole entry) above
Cyclin-dependent kinase 13, sequence (Q14004 whole entry): as the sequence (Q14004 whole entry) above

CC(C)c1nn(-c2c(Cl)cccc2Cl)c2nc(Cc3ccc(OCCO)cc3)[nH]c(=O)c12
EC50 [1]: 12 nM

CN(C)C/C=C/C(=O)Nc1ccc(C(=O)Nc2cccc(Nc3ncc(Cl)c(-c4c[nH]c5ccccc45)n3)c2)cc1
IC50 [2]: 620 nM

CN(C)C/C=C/C(=O)Nc1ccc(C(=O)N2CCC[C@@H](Nc3ncc(Cl)c(-c4c[nH]c5ccccc45)n3)C2)cc1
IC50 [3]: 690 nM

Clc1cnc(N[C@H]2CCCNC2)nc1-c1c[nH]c2ccccc12
IC50 [4]: 0.33 nM

CN(C)C/C=C/C(=O)Nc1ccc(C(=O)N[C@@]2(C)CCC[C@@H](Nc3ncc(Cl)c(-c4c[nH]c5ccccc45)n3)C2)nc1
IC50 [5]: 80 nM

Cn1cc(-n2cnc3c(NCc4nc5cc(Cl)c(Cl)cc5[nH]4)nc(N4CCOCC4)nc32)cn1
Kd [6]: > 10000 nM
IC50 [7]: > 10000 nM
IC50 [8]: < 10000 nM
IC50 [9]: > 10000 nM
Kd [10]: > 10000 nM

CC(=O)c1c(C)c2cnc(NC3CCN(S(C)(=O)=O)CC3)nc2n(C2CCCC2)c1=O
Ki [11]: 0.2 nM
Ki [12]: 9.6 nM
Ki [13]: 5.9 nM
Ki [14]: 0.2 nM

N[C@H]1CCN(c2c3c(nc4ccc(-c5ccnc(NC(=O)C6CC6)c5)cc24)CCCC3)C1
IC50 [15]: 2 nM

N[C@H]1CCN(c2c3c(nc4ccc(-c5ccncc5)cc24)CCCC3)C1
IC50 [15]: 8 nM
IC50 [16]: > 500 nM

CC(C)n1cnc2c(NCc3nc4cc(Cl)c(Cl)cc4[nH]3)nc(N3CCOCC3)nc21
EC50 [1]: 9 nM

CC(C)c1cnn2c(NCc3ccccc3)cc(NC[C@H]3CCNC[C@@H]3O)nc12 [CT-7001]
IC50 [17]: > 9400 nM
IC50 [18]: > 9400 nM
IC50 [19]: > 9400 nM
